Consider 1 compound from patent US20240335444A1, “MODULATORS OF BCL6 PROTEOLYSIS AND ASSOCIATED METHODS OF USE” (Arvinas Operations, Inc., priority 2023, published 2024).

The test system of one data set is OCI-Ly1. Briefly: Tumor growth of DLBCL cell line derived xenograft model OCI-Ly1. The class given is in vivo, mice. The note with it: OCI-Ly1 xenograft, dosing dependent. The method, then: Mice bearing subcutaneous tumors were orally (po) administered vehicle or Compound A at 1, 3, 10, or 30 mg/kg daily for 22 days (qd×22). Dosing began with tumors at an average of 140 mm^3. […] Statistical analyses were performed using 2-way ANOVA: p<0.0001 (****). Error bars represent standard error of the mean (±SEM).
(§1) Mice bearing subcutaneous tumors were orally (po) administered vehicle or Compound A at 1, 3, or 10 mg/kg bi-daily for 23 days (bid×23). Dosing began with tumors at an average of 170 mm^3. […] FIG. 7C depicts tumor lysate BCL6 protein levels 16-hours post-last dose analyzed by western blotting. Individual tumor BCL6 levels are shown in a scatter plot, mean is represented by the bar, determined by densitometry, normalized to GAPDH loading controls, and shown as a percentage of vehicle. Percent BCL6 degradation (%) relative to vehicle is shown above each arm. Statistical analyses were performed using 2-way ANOVA: p<0.0001 (****). Error bars represent standard error of the mean (±SEM).

Another data set relates to SU-DHL-2. Put plainly: Tumor growth of DLBCL cell line derived xenograft model SU-DHL-2. The note with it: SU-DHL-2 xenograft, po 3, 10 or 30 mg/kg bid×27 or 30 mg/kg qd×27; dosing dependent. It counts as in vivo, mice. The method, then: Mice bearing subcutaneous tumors were orally (po) administered vehicle or Compound A at 3, 10, or 30 mg/kg bi-daily for 27 days (bid×27) or 30 mg/kg daily for 27 days (qd×27). Dosing began with tumors at an average of 180 mm^3. […] FIG. 9C depicts tumor lysate BCL6 protein levels 16-hours post-last dose analyzed by western blotting. Individual tumor BCL6 levels are shown in a scatter plot, mean is represented by the bar, determined by densitometry, normalized to GAPDH loading controls, and shown as a percentage of vehicle. Percent BCL6 degradation (%) relative to vehicle is shown above each arm. Statistical analyses were performed using 2-way ANOVA: p<0.0001 (****). Error bars represent standard error of the mean (±SEM).

Another data set deals with OCI-Ly7. Briefly: Tumor growth of DLBCL cell line derived xenograft model OCI-Ly7. As to conditions: po 1, 3, 10 or 30 mg/kg daily for 13 days (qd×13), dosing dependent. The class given is in vivo, mice. The procedure:
(§2) Mice bearing subcutaneous tumors were orally (po) administered vehicle or Compound A at 1, 3, 10, or 30 mg/kg daily for 13 days (qd×13). Dosing began with tumors at an average of 130 mm^3. […] FIG. 8C depicts tumor lysate BCL6 protein levels 16-hours post-last dose analyzed by western blotting. Individual tumor BCL6 levels are shown in a scatter plot, mean is represented by the bar, determined by densitometry, normalized to GAPDH loading controls, and shown as a percentage of vehicle. Percent BCL6 degradation (%) relative to vehicle is shown above each arm. Statistical analyses were performed using 2-way ANOVA: p<0.0001 (****). Error bars represent standard error of the mean (±SEM).

A further data set has as its system DLBCL-derived cell lines. Briefly: Nine-day cell growth inhibition assay (CellTiter-Glo). The note with it: GCB lines OCI-Ly1, OCI-Ly7, SU-DHL-4, SU-DHL-6 and ABC lines SU-DHL-2, OCI-Ly10; 9 days; top dose 30 nM; concentration dependent. The class given is cell-based. The procedure:
Antiproliferative effects of Compound A on DLBCL-derived cell lines were tested. Nine-day cell growth inhibition assays were conducted using GCB lines OCI-Ly1, OCI-Ly7, SU-DHL-4 and SU-DHL-6 (FIG. 3A), and ABC lines SU-DHL-2 and OCI-Ly10 (FIG. 3B) dosed with a 7-point 3-fold serial dilution of Compound A at a top dose of 30 nM. On days 3 and 6-7, samples were split to new 48-well plates for re-treatment, and 20% to a 96-well plate to measure cell viability using CellTiter-Glo (CTG). Split cells in the 48-well plates were retreated and cultured out to day 9, when 20% of each sample was analyzed by CTG. Dose response was plotted as a percentage of vehicle (DMSO) control (FIG. 3A and FIG. 3B). Graphs are representative of at least two independent proliferation assays per cell line.

For a further data set, the system named is LY2214. Briefly: PDX model of DLBCL, high-grade B-cell lymphoma (HGBCL, LY2214). The class given is in vivo, NOD/SCID or BALB/c Nude Mice. As to conditions: 30 mg/kg PO QD×21, compared to vehicle. The method, then:
(§3) HuPrime® Lymphoma Xenograft Models in NOD/SCID or BALB/c Nude Mice, 4/group, were dosed orally (per os, PO) daily for 21 days (QD×21) and tumor measurements were acquired twice per week. […] Data points represent the mean per group and error bars the standard error of the mean.

Data set [1] has as its target T1, BCL6 protein (Homo sapiens, UniProt P41182). Briefly: Tumor lysate BCL6 protein levels in OCI-Ly7 xenograft (western blotting). Set-up: from tissue; host or cells: subcutaneous xenograft tumors of OCI-Ly1, OCI-Ly7, SU-DHL-2 or OCI-Ly10 cells in mice. As to conditions: 16-hours post-last dose (FIG. 8C). The class given is in vivo, mice. The procedure: as §2
Background: Immunoblotting shows a protein as a band on a membrane.

Data set [2] in a line: Body weight of mice in the PDX models. It counts as in vivo, NOD/SCID or BALB/c Nude Mice. The note with it: 30 mg/kg PO QD×21. The procedure: as §3
The target of data set [3] is T1, BCL6 protein. Briefly: Tumor lysate BCL6 protein levels in OCI-Ly1 xenograft tumor tissue (western blotting, densitometry). The class given is in vivo, mice. Set-up: from tissue; host or cells: subcutaneous xenograft tumors of OCI-Ly1, OCI-Ly7, SU-DHL-2 or OCI-Ly10 cells in mice. The procedure:
Tumor lysate BCL6 protein levels in OCI-Ly1 cell line xenograft tumor tissue was measured following a treatment time-course with Compound A. A single dose of Compound A was orally administered in a vehicle of 40% hydroxypropyl-b-cyclodextrin in pH 3.0 citrate buffer when tumors reached 200-400 mm^3. Tumors were harvested at the indicated timepoints. Tumor tissue lysates were analyzed using western immunoblotting procedures and densitometry. BCL6 levels are normalized to a GAPDH loading control and presented as a percentage (%) of the average of BCL6 levels in the vehicle control group. Percent BCL6 degradation (%) relative to vehicle is shown above each arm. Cells (1×10^7 cells in 50% matrigel+50% RMPI-1640 (phenol red-free)/100 μl/mouse) were implanted on the right flank subcutaneously.
as §1

The subject of another data set is LY12962. Put plainly: PDX model of NHL NOS (LY12962). It counts as in vivo, NOD/SCID or BALB/c Nude Mice. As to conditions: 30 mg/kg PO QD×21. The procedure: as §3

In the case of `CNC(=O)COc1cc2cc(Nc3nc(N4CCC(O[C@H]5C[C@H](N6CCC(c7ccc8c(c7F)CN(C7CCC(=O)NC7=O)C8=O)CC6)C5)CC4)ncc3Cl)ccc2n(C(C)C)c1=O` (stereo partly drawn) [Compound A, 2-({6-[(5-chloro-2-{4-[(1r,3r)-3-{4-[2-(2,6-dioxopiperidin-3-yl)-4-fluoro-1-oxo-2,3-dihydro-1H-isoindol-5-yl]piperidin-1-yl}cyclobutoxy]piperidin-1-yl}pyrimidin-4-yl)amino]-2-oxo-1-(propan-2-yl)-1,2-dihydroquinolin-3-yl}oxy)-N-methylacetamide], the Tumor growth result is “inhibits the tumor growth” in the data set with OCI-Ly1 (po 1, 3, 10 or 30 mg/kg daily for 22 days (qd×22)); “inhibits the tumor growth” in the data set with OCI-Ly1 (po 1, 3 or 10 mg/kg bi-daily for 23 days (bid×23)); “inhibits the tumor growth” in the data set with SU-DHL-2; “inhibits the tumor growth” in the data set with OCI-Ly7. Moreover, in the data set on DLBCL-derived cell lines, the “DLBCL cell growth (antiproliferative effect)” value was “significant decrease on DLBCL cells growth”. For the same compound, the “Change in mean tumor volume” value is “tumor regression” in the data set with LY2214 and “tumor regressions” in the data set with LY12962. For the same compound, the “Tumor lysate BCL6 protein level” value at BCL6 protein [1] is “dose-dependent degradation of BCL6 protein”; at BCL6 protein [3] (bid×23, 16-hours post-last dose (FIG. 7C)) it was “dose-dependent degradation of BCL6 protein”; at BCL6 protein [3] (single oral dose, time-course (FIG. 5)), “degraded BCL6 protein rapidly”. In [2], the Body weight loss result is “No significant body weight loss”. Moreover, the “Time BCL6 protein was kept down” value at BCL6 protein [3] (single oral dose (FIG. 5)) is reported as “up to 36 hours”.
